Experimental data published in ChEMBL document CHEMBL5465560, “Selectivity Literature for EUbOPEN Chemogenomic Library” (2024).
Values belong to the compound of their own block, whether it stands above or below them.

What was measured:
[1] = biological target: Bone morphogenetic protein receptor type-1B (Homo sapiens, UniProt O00238); experiment: Selectivity interaction (Kinase panel (Reaction Biology)) EUB0001184b BMPR1B; settings: at 1 µM
[2] = biological target: Mitogen-activated protein kinase kinase kinase kinase 4 (Homo sapiens, UniProt O95819); experiment: Selectivity interaction (Kinase panel (Reaction Biology)) EUB0001184b MAP4K4; settings: at 1 µM
[3] = biological target: TRAF2 and NCK-interacting protein kinase (Homo sapiens) (UniProt Q9UKE5); experiment: Selectivity interaction (Kinase panel (Reaction Biology)) EUB0001184b TNIK; settings: at 1 µM
[4] = biological target: Sigma intracellular receptor 2 (Homo sapiens) (UniProt Q5BJF2); experiment: Selectivity interaction (GPCR panel (PDSP screen)) EUB0001576a TMEM97; settings: at 10 µM
[5] = biological target: Sodium-dependent dopamine transporter (Homo sapiens, UniProt Q01959); experiment: Selectivity interaction (GPCR panel (PDSP screen)) EUB0001576a SLC6A3; settings: at 10 µM
[6] = biological target: T1, 5-hydroxytryptamine receptor 2B (Homo sapiens, UniProt P41595); experiment: Selectivity interaction (GPCR panel (PDSP screen)) EUB0001576a HTR2B; settings: at 10 µM
[7] = biological target: Serine/threonine-protein kinase 24 (Homo sapiens) (UniProt Q9Y6E0); experiment: Selectivity interaction (Kinase panel (DSF assay)) EUB0001479a STK24
[8] = biological target: T2, Serine/threonine-protein kinase 26 (Homo sapiens, UniProt Q9P289); experiment: Selectivity interaction (Kinase panel (DSF assay)) EUB0001479a STK26
[9] = biological target: Serine/threonine-protein kinase PAK 1 (Homo sapiens) (UniProt Q13153); experiment: Selectivity interaction (Kinase panel (DSF assayt)) EUB0001479a PAK1
[10] = biological target: T3, 5-hydroxytryptamine receptor 1A (Homo sapiens) (UniProt P08908); experiment: Selectivity interaction (CEREB panel (panel of receptors, transporters, ion channels, and other enzymes)) EUB0001119a HTR1A; settings: at 10 µM
T3 sequence (whole entry): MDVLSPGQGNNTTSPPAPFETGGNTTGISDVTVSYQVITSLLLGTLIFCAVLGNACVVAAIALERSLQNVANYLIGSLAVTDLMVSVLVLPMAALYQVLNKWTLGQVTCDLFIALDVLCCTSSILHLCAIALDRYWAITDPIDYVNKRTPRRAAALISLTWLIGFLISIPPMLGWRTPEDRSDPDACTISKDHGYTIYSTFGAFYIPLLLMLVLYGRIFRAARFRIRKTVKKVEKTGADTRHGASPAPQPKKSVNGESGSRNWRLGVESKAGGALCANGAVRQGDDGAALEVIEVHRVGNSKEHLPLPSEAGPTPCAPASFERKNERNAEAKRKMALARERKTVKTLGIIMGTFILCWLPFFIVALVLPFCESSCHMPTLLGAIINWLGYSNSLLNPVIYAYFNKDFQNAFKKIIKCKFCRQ

[11] = biological target: Serine/threonine-protein kinase PAK 3 (Homo sapiens) (UniProt O75914); experiment: Selectivity interaction (Kinase panel (Invitrogen)) EUB0001119a PAK3; settings: at 100 nM
[12] = biological target: Serine/threonine-protein kinase PAK 2 (Homo sapiens) (UniProt Q13177); settings: at 100 nM
[13] = biological target: T2, Serine/threonine-protein kinase 26; settings: at 100 nM
[14] = biological target: Tyrosine-protein kinase Lck (Homo sapiens, UniProt P06239); experiment: Selectivity interaction (Kinase panel (Invitrogen)) EUB0001119a LCK; settings: at 100 nM
[15] = biological target: Serine/threonine-protein kinase 24 (Homo sapiens) (UniProt Q9Y6E0); experiment: Selectivity interaction (Kinase panel (Invitrogen)) EUB0001119a STK24; settings: at 100 nM
[16] = biological target: 5-hydroxytryptamine receptor 4 (Homo sapiens) (UniProt Q13639); experiment: Selectivity interaction (CEREB panel (panel of receptors, transporters, ion channels, and other enzymes)) EUB0001119a HTR4; settings: at 10 µM
[17] = biological target: Serine/threonine-protein kinase SIK1 (Homo sapiens) (UniProt P57059); experiment: Selectivity interaction (Kinase panel (Invitrogen)) EUB0001119a SIK1; settings: at 100 nM
[18] = biological target: 5-hydroxytryptamine receptor 1B (Homo sapiens) (UniProt P28222); experiment: Selectivity interaction (CEREB panel (panel of receptors, transporters, ion channels, and other enzymes)) EUB0001119a HTR1B; settings: at 10 µM
[19] = biological target: Sodium channel protein type 2 subunit alpha (Homo sapiens) (UniProt Q99250); experiment: Selectivity interaction (CEREB panel (panel of receptors, transporters, ion channels, and other enzymes)) EUB0001119a SCN2A; settings: at 10 µM
[20] = biological target: T1, 5-hydroxytryptamine receptor 2B; experiment: Selectivity interaction (CEREB panel (panel of receptors, transporters, ion channels, and other enzymes)) EUB0001119a HTR2B; settings: at 10 µM
[21] = biological target: Mitogen-activated protein kinase kinase kinase kinase 5 (Homo sapiens) (UniProt Q9Y4K4); experiment: Selectivity interaction (Kinase panel (Invitrogen)) EUB0001119a MAP4K5; settings: at 100 nM
[22] = biological target: 5-hydroxytryptamine receptor 2A (Homo sapiens, UniProt P28223); experiment: Selectivity interaction (CEREB panel (panel of receptors, transporters, ion channels, and other enzymes)) EUB0001119a HTR2A; settings: at 10 µM
[23] = biological target: Epithelial discoidin domain-containing receptor 1 (Homo sapiens) (UniProt Q08345); experiment: Selectivity interaction (Kinase panel (Reaction Biology)) EUB0001464a DDR1; settings: at 1 µM
[24] = biological target: Mitogen-activated protein kinase kinase kinase kinase 5 (Homo sapiens) (UniProt Q9Y4K4); experiment: Selectivity interaction (Kinase panel (Reaction Biology)) EUB0001464a MAP4K5; settings: at 1 µM
[25] = biological target: MAP kinase-interacting serine/threonine-protein kinase 2 (Homo sapiens, UniProt Q9HBH9); settings: at 1 µM
[26] = biological target: Calcium/calmodulin-dependent protein kinase type II subunit delta (Homo sapiens) (UniProt Q13557); settings: at 1 µM
[27] = biological target: Calcium/calmodulin-dependent protein kinase type II subunit gamma (Homo sapiens) (UniProt Q13555); experiment: Selectivity interaction (KinaseProfile service (Milipore)) EUB0001485aCl CAMK2G; settings: at 1 µM

T1 sequence (P41595 whole entry): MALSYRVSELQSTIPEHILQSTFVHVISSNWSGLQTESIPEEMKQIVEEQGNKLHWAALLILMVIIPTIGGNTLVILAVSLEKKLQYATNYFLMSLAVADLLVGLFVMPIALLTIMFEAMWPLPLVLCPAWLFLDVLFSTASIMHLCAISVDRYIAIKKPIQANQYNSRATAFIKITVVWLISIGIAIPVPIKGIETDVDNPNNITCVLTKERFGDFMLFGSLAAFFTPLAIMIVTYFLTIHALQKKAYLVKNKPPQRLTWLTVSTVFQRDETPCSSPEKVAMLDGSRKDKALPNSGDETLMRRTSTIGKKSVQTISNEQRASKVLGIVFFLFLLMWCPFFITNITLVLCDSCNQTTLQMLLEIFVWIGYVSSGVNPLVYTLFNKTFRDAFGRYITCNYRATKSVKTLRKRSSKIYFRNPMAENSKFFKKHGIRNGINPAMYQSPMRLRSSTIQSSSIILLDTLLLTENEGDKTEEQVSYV
Sequence of Mitogen-activated protein kinase kinase kinase kinase 5 (Homo sapiens) (Q9Y4K4 whole entry, looked up): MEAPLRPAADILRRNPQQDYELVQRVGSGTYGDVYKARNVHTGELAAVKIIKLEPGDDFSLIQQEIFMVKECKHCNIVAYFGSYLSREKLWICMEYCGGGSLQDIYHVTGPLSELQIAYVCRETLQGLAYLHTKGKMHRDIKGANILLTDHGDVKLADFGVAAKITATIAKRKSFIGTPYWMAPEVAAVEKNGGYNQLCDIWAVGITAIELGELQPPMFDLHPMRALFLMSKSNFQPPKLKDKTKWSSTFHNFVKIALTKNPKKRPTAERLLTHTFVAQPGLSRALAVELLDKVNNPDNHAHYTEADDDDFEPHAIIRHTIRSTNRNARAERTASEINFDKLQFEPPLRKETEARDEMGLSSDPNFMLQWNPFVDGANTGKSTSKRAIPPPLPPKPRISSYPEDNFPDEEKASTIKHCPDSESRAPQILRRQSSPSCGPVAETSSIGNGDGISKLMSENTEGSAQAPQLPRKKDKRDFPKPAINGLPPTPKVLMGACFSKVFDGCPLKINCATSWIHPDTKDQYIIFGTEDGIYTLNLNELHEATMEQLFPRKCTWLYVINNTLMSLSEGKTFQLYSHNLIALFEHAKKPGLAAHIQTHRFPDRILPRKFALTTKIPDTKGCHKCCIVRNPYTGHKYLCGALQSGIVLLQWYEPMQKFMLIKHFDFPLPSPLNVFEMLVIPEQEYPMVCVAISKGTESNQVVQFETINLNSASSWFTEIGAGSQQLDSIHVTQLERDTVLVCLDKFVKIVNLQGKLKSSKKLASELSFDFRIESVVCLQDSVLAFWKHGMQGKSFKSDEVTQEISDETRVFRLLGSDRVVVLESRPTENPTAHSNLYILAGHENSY
T2 sequence (Q9P289 2-416 limits assumed): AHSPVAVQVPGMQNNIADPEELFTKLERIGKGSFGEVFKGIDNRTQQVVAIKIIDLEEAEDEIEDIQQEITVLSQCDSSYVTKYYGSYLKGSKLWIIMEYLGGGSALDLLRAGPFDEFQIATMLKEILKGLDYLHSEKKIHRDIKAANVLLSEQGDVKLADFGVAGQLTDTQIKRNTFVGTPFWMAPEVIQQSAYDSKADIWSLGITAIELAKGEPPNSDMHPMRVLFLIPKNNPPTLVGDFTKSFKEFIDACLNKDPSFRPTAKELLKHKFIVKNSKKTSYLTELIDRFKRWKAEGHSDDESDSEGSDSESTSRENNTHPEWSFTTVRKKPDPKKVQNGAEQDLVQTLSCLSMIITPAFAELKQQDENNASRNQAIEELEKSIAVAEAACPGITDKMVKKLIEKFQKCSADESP
Sequence of Serine/threonine-protein kinase 24 (Homo sapiens) (Q9Y6E0 whole entry, looked up): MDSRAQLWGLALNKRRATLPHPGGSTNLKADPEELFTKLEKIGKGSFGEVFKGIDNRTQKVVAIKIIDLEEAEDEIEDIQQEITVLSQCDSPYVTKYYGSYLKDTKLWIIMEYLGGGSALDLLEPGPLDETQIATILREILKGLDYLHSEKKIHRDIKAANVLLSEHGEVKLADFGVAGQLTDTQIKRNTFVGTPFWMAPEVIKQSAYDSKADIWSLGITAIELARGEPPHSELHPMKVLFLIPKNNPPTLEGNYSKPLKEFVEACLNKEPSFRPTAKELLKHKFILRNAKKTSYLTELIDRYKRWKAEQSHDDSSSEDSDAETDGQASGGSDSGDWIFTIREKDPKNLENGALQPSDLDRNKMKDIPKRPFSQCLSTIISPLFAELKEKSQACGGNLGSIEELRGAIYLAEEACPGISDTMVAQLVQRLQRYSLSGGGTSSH
Sequence of Serine/threonine-protein kinase SIK1 (Homo sapiens) (P57059 whole entry): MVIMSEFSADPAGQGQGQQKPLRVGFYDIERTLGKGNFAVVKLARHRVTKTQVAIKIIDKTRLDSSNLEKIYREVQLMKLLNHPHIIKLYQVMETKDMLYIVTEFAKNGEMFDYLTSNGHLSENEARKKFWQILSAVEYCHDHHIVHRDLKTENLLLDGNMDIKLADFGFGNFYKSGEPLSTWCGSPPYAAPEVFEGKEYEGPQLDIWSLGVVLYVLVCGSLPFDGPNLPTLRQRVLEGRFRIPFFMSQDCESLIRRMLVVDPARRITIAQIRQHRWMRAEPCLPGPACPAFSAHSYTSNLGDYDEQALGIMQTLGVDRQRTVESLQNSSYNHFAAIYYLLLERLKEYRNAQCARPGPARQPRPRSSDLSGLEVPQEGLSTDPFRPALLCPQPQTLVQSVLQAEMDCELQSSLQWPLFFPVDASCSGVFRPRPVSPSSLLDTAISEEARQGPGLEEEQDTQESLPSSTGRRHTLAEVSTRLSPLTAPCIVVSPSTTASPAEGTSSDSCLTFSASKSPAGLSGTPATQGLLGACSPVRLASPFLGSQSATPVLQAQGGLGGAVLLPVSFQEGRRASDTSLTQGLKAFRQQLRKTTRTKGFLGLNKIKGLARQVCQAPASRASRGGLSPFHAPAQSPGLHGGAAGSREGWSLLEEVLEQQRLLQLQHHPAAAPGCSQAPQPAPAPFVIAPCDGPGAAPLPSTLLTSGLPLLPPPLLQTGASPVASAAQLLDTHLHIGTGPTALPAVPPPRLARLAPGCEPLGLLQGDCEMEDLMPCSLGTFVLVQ
Sequence of Bone morphogenetic protein receptor type-1B (O00238 whole entry): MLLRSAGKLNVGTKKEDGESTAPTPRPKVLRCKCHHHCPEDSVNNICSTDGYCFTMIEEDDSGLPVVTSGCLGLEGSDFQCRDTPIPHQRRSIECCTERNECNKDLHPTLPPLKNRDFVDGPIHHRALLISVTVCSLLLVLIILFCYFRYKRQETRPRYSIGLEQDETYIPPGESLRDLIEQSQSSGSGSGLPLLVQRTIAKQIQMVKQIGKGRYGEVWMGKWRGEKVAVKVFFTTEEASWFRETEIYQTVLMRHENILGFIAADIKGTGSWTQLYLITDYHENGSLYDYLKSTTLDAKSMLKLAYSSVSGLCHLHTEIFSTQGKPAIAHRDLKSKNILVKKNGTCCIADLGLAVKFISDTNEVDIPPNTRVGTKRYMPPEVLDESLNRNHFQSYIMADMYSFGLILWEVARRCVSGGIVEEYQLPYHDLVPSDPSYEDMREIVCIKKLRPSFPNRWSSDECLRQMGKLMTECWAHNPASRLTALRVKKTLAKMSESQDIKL
Sequence of Tyrosine-protein kinase Lck (P06239 2-509 limits assumed): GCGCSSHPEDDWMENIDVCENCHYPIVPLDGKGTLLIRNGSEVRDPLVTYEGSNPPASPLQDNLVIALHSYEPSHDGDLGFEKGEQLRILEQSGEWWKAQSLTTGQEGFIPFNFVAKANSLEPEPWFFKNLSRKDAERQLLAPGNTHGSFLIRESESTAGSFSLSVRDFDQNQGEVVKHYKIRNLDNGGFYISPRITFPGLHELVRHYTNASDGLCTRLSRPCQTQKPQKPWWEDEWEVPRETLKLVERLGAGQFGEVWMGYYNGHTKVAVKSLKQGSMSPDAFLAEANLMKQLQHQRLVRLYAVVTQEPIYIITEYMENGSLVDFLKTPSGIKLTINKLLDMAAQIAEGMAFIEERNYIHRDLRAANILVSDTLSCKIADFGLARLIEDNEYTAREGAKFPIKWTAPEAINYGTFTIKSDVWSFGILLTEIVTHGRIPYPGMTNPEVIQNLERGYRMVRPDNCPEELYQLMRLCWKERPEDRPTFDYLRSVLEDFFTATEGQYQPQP
Sequence of 5-hydroxytryptamine receptor 1B (Homo sapiens) (P28222 whole entry): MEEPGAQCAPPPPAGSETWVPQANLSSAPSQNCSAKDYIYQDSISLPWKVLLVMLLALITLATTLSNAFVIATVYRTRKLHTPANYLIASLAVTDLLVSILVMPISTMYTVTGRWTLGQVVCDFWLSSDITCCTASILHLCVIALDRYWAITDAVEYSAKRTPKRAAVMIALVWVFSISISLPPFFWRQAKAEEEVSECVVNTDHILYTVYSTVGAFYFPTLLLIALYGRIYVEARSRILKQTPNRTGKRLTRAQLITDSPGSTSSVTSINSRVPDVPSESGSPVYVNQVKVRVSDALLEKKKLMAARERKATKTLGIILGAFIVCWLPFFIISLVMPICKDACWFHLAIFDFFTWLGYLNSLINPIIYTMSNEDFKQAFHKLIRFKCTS
Sequence of Sodium-dependent dopamine transporter (Q01959 whole entry): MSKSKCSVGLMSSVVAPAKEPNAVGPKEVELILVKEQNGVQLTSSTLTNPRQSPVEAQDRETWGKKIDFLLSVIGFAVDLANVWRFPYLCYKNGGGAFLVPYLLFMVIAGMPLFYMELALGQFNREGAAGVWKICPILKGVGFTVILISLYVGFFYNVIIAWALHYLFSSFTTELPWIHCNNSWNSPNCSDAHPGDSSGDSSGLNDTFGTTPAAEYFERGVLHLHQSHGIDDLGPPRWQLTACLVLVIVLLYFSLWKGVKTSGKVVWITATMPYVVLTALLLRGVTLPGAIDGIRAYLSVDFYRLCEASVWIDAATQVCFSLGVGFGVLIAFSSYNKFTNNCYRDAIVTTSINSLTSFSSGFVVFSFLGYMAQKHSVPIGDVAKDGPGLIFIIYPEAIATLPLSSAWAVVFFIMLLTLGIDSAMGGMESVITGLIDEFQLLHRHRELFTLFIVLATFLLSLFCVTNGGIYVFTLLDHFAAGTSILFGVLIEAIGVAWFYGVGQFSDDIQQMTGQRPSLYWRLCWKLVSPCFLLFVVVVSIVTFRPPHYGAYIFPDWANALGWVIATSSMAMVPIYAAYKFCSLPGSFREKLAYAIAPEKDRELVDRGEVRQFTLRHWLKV

Structure (SMILES): CN(C)C(=O)c1sc2nc(N3CCC(S(C)(=O)=O)CC3)cc(C(F)(F)F)c2c1N
% of inhibition [4]: 70.6%
% of inhibition [5]: 80.5%
% of inhibition [6]: 47.5%

Structure (SMILES): CN(C)c1ncc2cc(-c3ccc(-c4ncccc4F)cc3Cl)c(=O)n(C[C@H]3OC[C@H](N)CO3)c2n1
dTM [7]: 0.2 K
dTM [8]: 0.8 K
dTM [9]: 0.9 K

Structure (SMILES): CNc1ncc2cc(-c3ccc(-c4cccc(C)n4)cc3Cl)c(=O)n(C[C@H]3OC[C@H](N)CO3)c2n1
% of inhibition [10]: 56%
% of inhibition [11]: 91.5%
% of inhibition [12]: 101%
% of inhibition [13]: 89.7%
% of inhibition [14]: 75.7%
% of inhibition [15]: 80.6%
% of inhibition [16]: 75%
% of inhibition [17]: 95.3%
% of inhibition [18]: 84%
% of inhibition [19]: 75%
% of inhibition [20]: 92%
% of inhibition [21]: 99.8%
% of inhibition [22]: 75%

The remaining lines, values ahead:

% of inhibition [1]: 27%
% of inhibition [2]: 30%
% of inhibition [3]: 4.92%
Structure (SMILES): COc1cc(-c2cncc(-c3ccc(N4CCN(C(C)C)CC4)cc3)c2C)cc(F)c1C(N)=O

% of inhibition [23]: 28%
% of inhibition [24]: 28%
Structure (SMILES): c1ccc2c(-c3coc4cc(-c5ccc(N6CCNCC6)cc5)cnc34)ccnc2c1

% of control [25]: 55%
% of control [26]: 60%
% of control [27]: 59%
Structure (SMILES): COc1cc(-c2cn[nH]c2)ccc1C(=O)Nc1ccc2c(c1)CCNCC2
